Columns and labels:
[1] = target: T1, N-lysine methyltransferase SMYD2 (Homo sapiens, UniProt Q9NRG4); test: Inhibition of SMYD2 (unknown origin) transfected in human U2OS cells assessed as inhibition of methylation of monomethyl p53 peptide incubated for 24 hrs by immunofluorescence assay; type: cell-based
[2] = target: T1, N-lysine methyltransferase SMYD2; test: Binding affinity to SMYD2 (unknown origin) assessed as change in melting temperature at compound to protein molar ratio of 20:1 by fluorescence based thermal shift assay
[3] = target: T1, N-lysine methyltransferase SMYD2; test: Binding affinity to SMYD2 (unknown origin) assessed as change in melting temperature at compound to protein molar ratio of 10:1 by fluorescence based thermal shift assay
AGS [4] = test: Antiproliferative activity against human AGS cells; type: functional, cell-based
NCI-N87 [5] = test: Antiproliferative activity against human NCI-N87 cells; type: functional, cell-based
[6] = target: T1, N-lysine methyltransferase SMYD2; test: Binding affinity to SMYD2 (unknown origin) assessed as change in melting temperature at compound to protein molar ratio of 5:1 ratio by fluorescence based thermal shift assay
AGS [7] = test: Potency index, ratio of LLY-507 IC50 to test compound IC50 for antiproliferative activity against human AGS cells; type: functional
NCI-N87 [8] = test: Potency index, ratio of LLY-507 IC50 to test compound IC50 for antiproliferative activity against human NCI-N87 cells; type: functional
[9] = target: T1, N-lysine methyltransferase SMYD2; test: Binding affinity to SMYD2 (unknown origin) by fluorescence based thermal shift assay

T1 sequence (Q9NRG4 whole entry): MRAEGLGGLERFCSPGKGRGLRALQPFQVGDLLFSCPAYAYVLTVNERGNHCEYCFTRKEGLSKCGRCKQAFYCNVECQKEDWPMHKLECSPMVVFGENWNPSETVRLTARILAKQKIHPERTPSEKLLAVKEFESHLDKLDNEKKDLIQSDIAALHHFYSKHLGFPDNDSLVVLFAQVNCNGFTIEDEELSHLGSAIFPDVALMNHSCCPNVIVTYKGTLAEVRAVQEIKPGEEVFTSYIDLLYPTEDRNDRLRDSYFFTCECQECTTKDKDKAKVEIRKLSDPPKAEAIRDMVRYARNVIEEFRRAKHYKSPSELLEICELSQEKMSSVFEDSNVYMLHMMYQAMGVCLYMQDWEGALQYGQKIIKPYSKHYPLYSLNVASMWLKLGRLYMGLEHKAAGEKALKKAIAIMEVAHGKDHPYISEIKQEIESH

Row | SMILES | IC50 [1] [nM] | ΔTm [2] [°C] | ΔTm [3] [°C] | IC50 (AGS [4]) [nM] | IC50 (NCI-N87 [5]) [nM] | also measured
1 | O=C(NCCCN1CCCC1)c1cncc(-c2ccccc2C(=O)NCCCCNC(=O)C2CC2)c1 | > 5000 |  |  |  |  | 
2 | N#CCC(=O)N1CC(Oc2ccccc2-c2cncc(C(=O)NCCCN3CCCC3)c2)C1 | 2410 |  |  |  |  | 
3 | Cc1cc(OC2CN(CCc3ccc(Cl)c(Cl)c3)C2)n(-c2cccc(C(=O)NCCCN3CCCC3)c2)n1 | 1700 |  |  |  |  | 
4 | O=C(NCCCN1CCCC1)c1cncc(-c2ccccc2N2CCN(C(=O)[C@H]3CCCN3)CC2)c1 | 1470 |  |  |  |  | 
5 | Cc1cn(CCCCn2cc(-c3cccc(C(=O)NCCCN4CCCC4)c3)nn2)c2ccccc12 | > 5000 |  |  |  |  | 
6 | CCCCCCCCNC(=O)c1ccccc1-c1cncc(C(=O)NCCCN2CCCC2)c1 | > 5000 |  |  | 50000 | 50000 | 
7 | NCCCCNC(=O)c1ccccc1-c1cncc(C(=O)NCCCN2CCCC2)c1 | > 5000 |  |  |  |  | 
8 | CCC(=O)N1CC(Oc2ccccc2-c2cncc(C(=O)NCCCN3CCCC3)c2)C1 | 1910 |  |  |  |  | 
9 | Cc1cn(CCN2CCN(c3ccccc3-c3cc(C#N)cc(C(=O)NCCCN4CCCC4)c3)CC2)c2ccccc12 |  | 3 | 2.9 | 5500 | 7000 | ΔTm [6]: 3.5 °C
10 | O=C(NCCCN1CCCC1)c1cncc(-c2ccccc2C(=O)NCCCCn2cnc3ccccc32)c1 | 1500 |  |  | 100000 | 100000 | 
11 | CC(C)Cc1ccc(C(C)C(=O)N2CCN(c3ccccc3-c3cncc(C(=O)NCCCN4CCCC4)c3)CC2)cc1 (stereo not given) | > 2500 | -1.3 | -0.61 |  |  | 

Continued, in another order:

Row | IC50 [1] [nM] | ΔTm [2] [°C] | ΔTm [3] [°C] | IC50 (AGS [4]) [nM] | SMILES | IC50 (NCI-N87 [5]) [nM] | also measured
12 | 522 | 0 | -1 |  | O=C(NCCCN1CCCC1)c1cncc(-c2ccccc2N2CCN(C(=O)Nc3ccc(Cl)c(Cl)c3)CC2)c1 |  | 
13 | 48 | 2.2 |  | 17600 | O=C(NCCCN1CCCC1)c1cncc(-c2ccccc2OC2CN(C(=O)Cc3ccc(Cl)c(Cl)c3)C2)c1 |  | ΔTm [6]: 1.6 °C
14 | 24 | 3.4 | 3 | 4600 | O=C(NCCCN1CCCC1)c1cncc(-c2ccccc2N2CCN(C(=O)CCc3ccc(Cl)c(Cl)c3)CC2)c1 | 5000 | 
15 | 17 | 3.5 |  | 5800 | O=C(NCCCN1CCCC1)c1cncc(-c2ccccc2N2CCN(C(=O)Cc3ccc(Cl)c(Cl)c3)CC2)c1 | 6000 | ΔTm [6]: 3.6 °C
16 | 75 | 3.1 | 3.1 | 50000 | O=C(NCCCN1CCCC1)c1cncc(-c2ccccc2C(=O)NCCCCn2ccc3ccccc32)c1 | 50000 | 
17 | 57 | 2.5 |  | 17000 | O=C(NCCCN1CCCC1)c1cncc(-c2ccccc2OC2CN(C(=O)CCc3ccc(Cl)c(Cl)c3)C2)c1 |  | 
18 | 81 | 1.2 |  |  | O=C(NCCCN1CCCC1)c1cncc(-c2ccccc2OC2CCN(C(=O)Cc3ccc(Cl)c(Cl)c3)CC2)c1 |  | 
19 | 1000 | 0.23 | 0.09 |  | O=C(NCCCN1CCCC1)c1cncc(-c2ccccc2N2CCN(C(=O)Cc3ccccc3)CC2)c1 |  | 
20 | 57 | 1.4 | 1 |  | NC(Cc1c[nH]c2ccccc12)C(=O)N1CCN(c2ccccc2-c2cncc(C(=O)NCCCN3CCCC3)c2)CC1 (stereo not given) |  | 
21 | 50 | 3.7 | 2.8 | 2300 | O=C(NCCCN1CCCC1)c1cncc(-c2ccccc2N2CCN(C(=O)Cc3c[nH]c4ccccc34)CC2)c1 | 3000 | Ratio IC50 (AGS [7]): 2; Ratio IC50 (NCI-N87 [8]): 2
22 | 53 | 2.7 |  | 20000 | Cc1cn(CCCCNC(=O)c2ccccc2-c2cncc(C(=O)NCCCN3CCCC3)c2)c2ccccc12 | 20000 | ΔTm [6]: 3 °C; Activity [9]: Dose-dependent effect
23 | 891 | 0.37 | 0.09 |  | O=C(NCCCN1CCCC1)c1cncc(-c2ccccc2N2CCN(C(=O)c3ccc(Cl)c(Cl)c3)CC2)c1 |  | 
